Values joined by “and” are separate entries in the source; they are usually repeats but may differ in a detail not shown here. Equal entries are not always repeated. Where two headings read alike, the source gives them in different places.

Broadly, the IC50 is the midpoint of a concentration-inhibition curve. Usually ED50 stands for the midpoint of the dose-response relation. A higher ED50 goes with weaker potency. As a reminder, the TD50 is the 50% point of the dose-response relation for the toxic effect studied.

The target in one data set is Nav1.2 (Mus musculus (Mouse), UniProt B1AWN6). The data set is described as follows: Voltage-clamp, Nav1.2 currents in N1E-115 neuroblastoma cells. In kind it is cell-based. On the procedure: (§1) All experiments were conducted at room temperature (22-24° C.) with an EPC-10 amplifier and Pulse software (HEKA, Lambrecht/Pfalz, Germany) in the whole-cell mode of the patch-clamp technique. Human embryonic kidney (HEK)-293 cell lines stably expressing hNav1.1, hNav1.5, hNav1.7 channels (generously provided by Dr. Christopher Lossin, University of California Davis), hNav1.4 (Frank Lehmann-Horn, University of Ulm), or hKv2.1 channels (James Trimmer, University of California Davis) were bathed in extracellular solution containing (in mM): 160 NaCl; 4.5 KCl; 1 MgCl2; 2 CaCl2; 10 HEPES [pH was adjusted to 7.4 using NaOH (310 mOsm)]. Pipettes were filled with intracellular solution containing (in mM): 145 KF; 2 MgCl2; 10 ethylene glycol tetraacetic acid; 10 HEPES (pH adjusted to 7.2 with KOH; 300 mOsm). Neuroblastoma N1E-115 cells (ATCC, Manassa, Va., USA) expressing Nav1.2 were patched with a CsF internal solution consisting of (in mM): 10 NaF; 110 CsF; 20 CsCl; 2 ethylene glycol tetraacetic acid; 10 HEPES (CsOH to pH 7.35; 300 mOsm). All pipette tip resistances were 2-4 MΩ. Series resistances of 3-10 MΩ were compensated 40-80%. All cells were voltage-clamped to a holding potential of −90 mV unless otherwise specified. The sampling frequency was 5 kHz. Na^+ currents were elicited by 30-ms pulse to 0 mV from −90 mV applied every 10 s. Kv2.1 currents were elicited by 200-ms voltage steps from −90 to 40 mV applied every 10 s.
Sequence of Nav1.2 (B1AWN6 whole entry): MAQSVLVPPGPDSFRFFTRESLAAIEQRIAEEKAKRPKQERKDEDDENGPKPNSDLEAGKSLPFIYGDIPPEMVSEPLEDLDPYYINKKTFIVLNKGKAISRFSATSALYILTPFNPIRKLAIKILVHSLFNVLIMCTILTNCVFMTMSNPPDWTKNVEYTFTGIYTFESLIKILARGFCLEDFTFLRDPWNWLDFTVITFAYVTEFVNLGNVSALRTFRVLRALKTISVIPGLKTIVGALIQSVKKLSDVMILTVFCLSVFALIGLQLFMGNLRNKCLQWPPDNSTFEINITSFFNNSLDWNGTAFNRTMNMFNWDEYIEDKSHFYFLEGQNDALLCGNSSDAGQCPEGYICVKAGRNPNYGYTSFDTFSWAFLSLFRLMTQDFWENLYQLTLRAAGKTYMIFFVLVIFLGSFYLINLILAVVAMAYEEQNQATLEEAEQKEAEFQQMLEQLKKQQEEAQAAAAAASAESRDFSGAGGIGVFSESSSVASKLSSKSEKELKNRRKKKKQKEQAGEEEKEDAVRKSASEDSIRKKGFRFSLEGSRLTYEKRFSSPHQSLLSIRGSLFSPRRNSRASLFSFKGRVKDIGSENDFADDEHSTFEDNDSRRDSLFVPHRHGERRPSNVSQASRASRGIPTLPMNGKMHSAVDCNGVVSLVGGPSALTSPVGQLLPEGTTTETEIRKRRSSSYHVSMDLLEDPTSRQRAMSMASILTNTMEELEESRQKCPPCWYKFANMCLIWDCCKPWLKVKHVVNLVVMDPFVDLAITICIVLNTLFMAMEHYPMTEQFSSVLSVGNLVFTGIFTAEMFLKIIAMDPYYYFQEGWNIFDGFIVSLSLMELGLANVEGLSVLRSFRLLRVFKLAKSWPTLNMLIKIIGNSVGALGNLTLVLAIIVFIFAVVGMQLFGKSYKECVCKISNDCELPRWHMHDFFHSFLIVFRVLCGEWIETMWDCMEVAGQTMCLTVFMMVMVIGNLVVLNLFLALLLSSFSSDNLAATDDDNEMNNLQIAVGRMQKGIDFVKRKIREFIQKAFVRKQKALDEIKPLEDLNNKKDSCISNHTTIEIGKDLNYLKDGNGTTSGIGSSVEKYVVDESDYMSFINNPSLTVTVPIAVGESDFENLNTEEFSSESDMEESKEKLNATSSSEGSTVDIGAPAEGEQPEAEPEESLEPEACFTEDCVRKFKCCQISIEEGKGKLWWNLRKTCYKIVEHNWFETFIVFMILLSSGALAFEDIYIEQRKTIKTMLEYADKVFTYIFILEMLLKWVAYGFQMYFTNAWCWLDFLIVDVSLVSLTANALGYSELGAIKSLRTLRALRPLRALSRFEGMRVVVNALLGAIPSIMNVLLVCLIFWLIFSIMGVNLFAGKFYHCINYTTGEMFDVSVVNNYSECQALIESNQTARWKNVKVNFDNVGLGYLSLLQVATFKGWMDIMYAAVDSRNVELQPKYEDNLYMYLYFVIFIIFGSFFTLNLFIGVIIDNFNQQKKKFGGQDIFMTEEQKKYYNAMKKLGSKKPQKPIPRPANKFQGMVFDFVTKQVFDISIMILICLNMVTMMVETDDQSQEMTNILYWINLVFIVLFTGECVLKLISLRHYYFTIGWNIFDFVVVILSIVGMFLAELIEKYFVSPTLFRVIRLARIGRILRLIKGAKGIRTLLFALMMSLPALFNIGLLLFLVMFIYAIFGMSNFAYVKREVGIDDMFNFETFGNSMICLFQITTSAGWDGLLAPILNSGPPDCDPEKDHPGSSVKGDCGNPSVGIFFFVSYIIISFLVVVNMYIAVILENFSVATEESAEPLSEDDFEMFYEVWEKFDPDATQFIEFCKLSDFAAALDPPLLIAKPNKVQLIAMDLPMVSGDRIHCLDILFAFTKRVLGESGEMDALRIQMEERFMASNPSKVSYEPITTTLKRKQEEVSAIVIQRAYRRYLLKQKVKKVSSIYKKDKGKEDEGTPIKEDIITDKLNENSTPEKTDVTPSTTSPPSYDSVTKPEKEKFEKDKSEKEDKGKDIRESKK

Data set [1] deals with Metrazol seizure threshold. The data set is described as follows: Infusion of Metrazol (i.v. Met) seizure threshold test. In kind it is in vivo, mice. As to the method: The i.v. Met test provides a measure of a test substance's ability to raise or lower seizure threshold. Two doses of the test compound are usually employed in this test, the MES ED50 and the TD50 determined following i.p. quantification testing in mice. SKA-19 was accordingly tested at 5 and 30 mg/kg. Randomly selected mice (n=30) were injected i.p. 2 minutes apart with either the vehicle or the two test drug doses. At the previously determined TPE, 0.5% heparinized Metrazol solution was infused at a constant rate of 0.34 ml/min into a lateral tail vein. The time in seconds from the start of the infusion to the appearance of the “first twitch” and the onset of sustained clonus is recorded. The times to each endpoint are converted to mg/kg of Metrazol for each mouse as follows: mg/kg Met=Infusion time (T)×Rate of infusion (ml/min)×mg Met/ml×1000 g/60 sec×Weight (W) of animal in g=T×0.34×5×1000=28.33×T=mg/kg of Metrazol 60×W W. The mean and S.E. for each of the 3 groups and the significance of the difference between the test groups and the control are calculated.

The test system of another data set is 6 Hz seizures. As to the kind of experiment: 6 Hz seizure test, compounds given i.p. as solution. As to conditions: Mus musculus, ip, 10 min, mice, values stated uncertain. Type of data set: in vivo. As to the method: (§2) The mouse maximal electroshock (MES) and 6 Hz seizure models were used. Motor toxicity was assessed using a modification of the horizontal screen test. ED50 values in the seizure models and TD50 values in the toxicity test were determined by nonlinear fitting of dose-response curves. […] Drugs solutions were injected intraperitoneally 10 min prior to administration of the electrical stimulus in a volume of 10 ml/kg body weight.

The next data set concerns formalin-induced pain. As to the kind of experiment: Formalin pain assay. In kind it is in vivo, mice. As to conditions: 5 mg/kg. As to the method: SKA-19 was administered at a dose of 5 mg/kg to CF-1 male mice. At the previously determined time of peak anticonvulsant effect 0.5% formalin was injected sub-dermally into the plantar surface of the right hind foot. For each animal the amount of time (s) spent licking the affected hind paw in a two minute period was recorded at 5 minute intervals and continued for 45 minutes through both the acute and inflammatory phase.

The next data set deals with Nav1.5 (Homo sapiens (Human), UniProt Q14524). As to the kind of experiment: Voltage-clamp, Nav1.5 in HEK-293 cells. In kind it is cell-based. On the procedure: as §1, with “Kv2.1 currents were elicited by 200-ms voltage steps from −90 to 40 mV applied every 10 s.” left out
Sequence of Nav1.5 (Q14524 whole entry): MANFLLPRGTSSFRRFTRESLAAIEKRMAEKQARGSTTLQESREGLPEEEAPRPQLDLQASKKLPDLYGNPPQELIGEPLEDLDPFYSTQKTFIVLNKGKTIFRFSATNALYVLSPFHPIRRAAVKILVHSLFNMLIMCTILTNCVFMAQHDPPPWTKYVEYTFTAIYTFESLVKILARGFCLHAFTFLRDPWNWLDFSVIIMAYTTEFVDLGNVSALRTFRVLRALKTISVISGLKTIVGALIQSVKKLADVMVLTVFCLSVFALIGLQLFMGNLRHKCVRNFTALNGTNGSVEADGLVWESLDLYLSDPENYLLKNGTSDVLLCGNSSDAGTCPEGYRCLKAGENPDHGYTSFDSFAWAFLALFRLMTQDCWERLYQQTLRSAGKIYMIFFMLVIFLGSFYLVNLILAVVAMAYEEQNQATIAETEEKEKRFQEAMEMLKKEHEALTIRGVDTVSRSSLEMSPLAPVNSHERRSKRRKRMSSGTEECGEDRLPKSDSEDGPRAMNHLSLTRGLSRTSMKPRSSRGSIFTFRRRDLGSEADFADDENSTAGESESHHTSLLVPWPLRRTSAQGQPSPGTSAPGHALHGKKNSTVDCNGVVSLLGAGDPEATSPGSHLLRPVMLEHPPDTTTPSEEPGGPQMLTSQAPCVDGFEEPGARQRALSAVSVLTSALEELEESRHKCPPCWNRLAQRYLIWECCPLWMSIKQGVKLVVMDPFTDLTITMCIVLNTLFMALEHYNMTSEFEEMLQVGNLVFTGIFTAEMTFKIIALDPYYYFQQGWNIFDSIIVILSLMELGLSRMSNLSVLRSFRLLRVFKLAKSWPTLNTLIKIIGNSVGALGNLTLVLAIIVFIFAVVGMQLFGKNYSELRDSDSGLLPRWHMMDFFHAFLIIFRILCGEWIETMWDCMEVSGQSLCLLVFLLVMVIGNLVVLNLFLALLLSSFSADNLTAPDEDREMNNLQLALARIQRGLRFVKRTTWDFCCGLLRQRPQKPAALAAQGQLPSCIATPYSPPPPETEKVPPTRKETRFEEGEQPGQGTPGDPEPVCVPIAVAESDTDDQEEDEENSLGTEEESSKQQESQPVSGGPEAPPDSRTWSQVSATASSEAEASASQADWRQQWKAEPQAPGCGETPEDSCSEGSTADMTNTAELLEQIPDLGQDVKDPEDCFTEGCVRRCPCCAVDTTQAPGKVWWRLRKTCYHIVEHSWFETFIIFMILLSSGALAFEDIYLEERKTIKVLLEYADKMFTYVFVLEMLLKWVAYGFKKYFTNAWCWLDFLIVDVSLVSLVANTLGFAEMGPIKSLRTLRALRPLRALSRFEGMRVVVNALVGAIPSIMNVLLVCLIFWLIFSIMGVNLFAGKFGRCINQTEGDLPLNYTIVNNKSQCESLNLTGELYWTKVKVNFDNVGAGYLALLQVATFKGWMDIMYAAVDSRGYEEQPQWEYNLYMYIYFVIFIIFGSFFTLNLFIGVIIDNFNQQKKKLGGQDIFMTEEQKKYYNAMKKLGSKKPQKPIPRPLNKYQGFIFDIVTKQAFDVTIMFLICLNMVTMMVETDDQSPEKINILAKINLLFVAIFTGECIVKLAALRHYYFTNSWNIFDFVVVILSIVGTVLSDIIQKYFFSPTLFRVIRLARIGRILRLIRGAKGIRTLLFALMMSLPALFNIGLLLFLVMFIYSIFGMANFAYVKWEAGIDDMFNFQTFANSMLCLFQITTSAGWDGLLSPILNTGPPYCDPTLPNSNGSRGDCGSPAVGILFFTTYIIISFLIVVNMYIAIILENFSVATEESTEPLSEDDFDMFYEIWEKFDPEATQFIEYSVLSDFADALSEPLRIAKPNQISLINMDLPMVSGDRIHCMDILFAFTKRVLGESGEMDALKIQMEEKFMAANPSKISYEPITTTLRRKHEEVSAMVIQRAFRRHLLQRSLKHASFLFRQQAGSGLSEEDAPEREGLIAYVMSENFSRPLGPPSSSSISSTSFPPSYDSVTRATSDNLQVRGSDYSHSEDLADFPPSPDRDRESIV
Data set [2] is described as follows: ASP toxicity studies (species not stated). Type of data set: in vivo. As to conditions: 200 mg/kg.
The next data set has as its target Nav1.3 (Homo sapiens (Human), UniProt Q9NY46). The data set is described as follows: Voltage-clamp, Nav1.3. The conditions noted are these: read-out: EC50 or IC50, Nav1.3. In kind it is cell-based.
The next data set concerns the target Nav1.1 (Homo sapiens (Human), UniProt P35498). The data set is described as follows: Voltage-clamp, Nav1.1 in HEK-293 cells. Type of data set: cell-based. The conditions noted are these: holding potential -90 mV, 0.1 Hz; read-out: EC50 or IC50, Nav1.1. On the procedure:
as §1, with “Kv2.1 currents were elicited by 200-ms voltage steps from −90 to 40 mV applied every 10 s.” left out

The nature of data set [3]: Motor toxicity, horizontal screen test in mice. As to conditions: in vivo, ip, i.p. as solution, 10 min time point, read-out: TD50, neurological impairment (horizontal screen). Type of data set: in vivo. On the procedure:
(§3) Abnormal neurological status in mice following SKA-19 administration was evaluated with the rotorod test. When a normal mouse is placed on a rod 1 inch in diameter that rotates at a speed of 6 rpm, the mouse can maintain equilibrium for a long time. Inability of the mouse to stay on the rotating rod in three trials for 1 min is taken as an indication of motor impairment. […] Mice were placed on a horizontally oriented grid (consisting of parallel 1.5-mm diameter rods situated 1 cm apart), and the grid was inverted. Animals that fell from the grid within 10 s were scored as impaired.
as §2

The subject of a further data set is mice. The data set is described as follows: Motor toxicity, horizontal screen test in mice. In kind it is in vivo. The conditions noted are these: i.p. as solution, 10 min time point. On the procedure:
as §3, §2

As to `Nc1nc2ccc(SC(F)(F)F)cc2s1` [SKA-19, 6-((trifluoromethyl)thio)benzo[d]thiazol-2-amine], the IC50 is 0.52 ± 0.23 µM at Nav1.2 (20 Hz, read-out: IC50, Nav1.2); 0.86 ± 0.7 µM on Nav1.2 (-70 mV holding potential, read-out: IC50, Nav1.2); 9.5 ± 1.72 µM at Nav1.2 (-120 mV holding potential, read-out: IC50, Nav1.2); 0.86 µM at Nav1.2 (changed holding potential, read-out: IC50, Nav1.2); ~7.9 µM and 7.9 µM on Nav1.2 (holding potential -90 mV, 0.1 Hz, read-out: EC50 or IC50, Nav1.2); 0.52 µM on Nav1.2 (pulse frequency 20 Hz, read-out: IC50, Nav1.2). For the same molecule, the IC50 on Nav1.5 (read-out: EC50 or IC50, Nav1.5) was 5.8 ± 2.6 µM; on Nav1.3 it was 2.2 ± 1.1 µM; on Nav1.1, 6.9 ± 4.9 µM. Moreover, the “time or metrazole dose to the first twitch or clonus” value in data set [1] (5 mg/kg i.p.) is reported as “did not change”. Further, in [1] (5 and 30 mg/kg i.p.), the proconvulsant action entry was “not proconvulsant”. In addition, in [1] (SKA-19 30 mg/kg i.p.), the “Metrazole dose to first clonus” value is 37.2 ± 1.25 mg/kg. For the same molecule, the “Metrazole dose to first twitch” value in data set [1] (SKA-19 30 mg/kg i.p.) worked out at 31.6 ± 1.0 mg/kg. The molecule also came in with an ED50 in the data set on 6 Hz seizures of 22.5 mg/kg. Besides, the “reduction of paw licking (area under curve), Phase II” value with formalin-induced pain (2 hours prior to formalin) was 31.3%. Further, in the data set with formalin-induced pain (2 hours prior to formalin), the “reduction of total paw licking (area under curve), Phase I” value amounted to 54.5%. In the data set with formalin-induced pain (2 h prior to formalin), the “time spent licking the affected hindpaw” value is “significantly decreased”. Besides, the “block of Nav1.5” value on Nav1.5 is recorded as “low micromolar range”. For the same molecule, in data set [2], the “duration of sedation and neurological impairment” value was “up to 24 h”. The TD50 at 10 min in [3] (CF-1, mouse) was 16.1 mg/kg; in data set [3] (mouse), 16.1 mg/kg. Also, the “TD50, neurological impairment (horizontal screen)” value with mice came to 16.33 mg/kg.

Values taken from patent US9675591B2, “Methods for treating seizure disorders and pain” (THE REGENTS OF THE UNIVERSITY OF CALIFORNIA, priority 2013, dated 2017).
